What was measured:
[1] = tested on: chronic hepatitis model mice; test: Liver function ameliorative effects in chronic hepatitis model mice (carbon tetrachloride); plasma AST, ALT, ChE; type: in vivo, ICR mice
Protocol: Production of chronic hepatitis model mice was carried out according to a modified version of the method of Vogten et al. (J. Mathys Vogten et al., Int. J. Colorectal Dis. (2004), 19: 387-394).
ICR mice weighing about 30 g (age: 6 weeks, males, supplier: Sankyo Labo Service) were used in the experiment after preliminarily housing for 5 days while allowing free access to solid feed (Labo MR Stock) and distilled water. The animals were housed in an animal room set to conditions consisting of a temperature of 22±2° C., humidity of 60±5% and light-dark cycle of 12 hours.
Following preliminary housing, the animals were intraperitoneally administered carbon tetrachloride (10% corn oil solution (v/v)) three times a week. The initially dose was 330 μl/kg, the second dose was […], and all subsequent doses were 500 μl/kg. This administration was carried out over the course of six weeks to produce chronic hepatitis model mice.
After administering carbon tetrachloride for 6 weeks, the animals were divided into an orniplabin dose group and control group so as to be statistically equivalent (orniplabin dose group: 7 animals, control group: 6 animals). Orniplabin was continuously administered into the abdominal cavity at 10 mg/kg. The control group was continuously administered physiological saline into the abdominal cavity at 2 ml/kg. This procedure was carried out for 14 days.
Following completion of administration, blood samples were collected from the vena cava into a syringe barrel containing anticoagulant in the form of 3.8% sodium citrate solution ( 1/10 volume of collected blood), and the resulting blood was centrifuged immediately for 20 minutes at 3000 rpm to collect the supernatant for use as blood samples.
The levels of AST ([…], GOT), ALT (alanine aminotransferase, GPT) and ChE (cholinesterase) were measured for the resulting blood samples (Hitachi Model 7180 Autoanalyzer).

[2] = tested on: pulmonary embolism model rats; conditions: pulmonary embolism model rats in vivo; cited from earlier work
[3] = target: T1, plasminogen (Homo sapiens, UniProt P00747); conditions: JP 2004-224737; cited from earlier work
[4] = target: T1, plasminogen; conditions: cited from earlier work
[5] = 10 mg/kg into the abdominal cavity for 14 days, versus normal level

T1 sequence (P00747 20-810 limits assumed, species assumed): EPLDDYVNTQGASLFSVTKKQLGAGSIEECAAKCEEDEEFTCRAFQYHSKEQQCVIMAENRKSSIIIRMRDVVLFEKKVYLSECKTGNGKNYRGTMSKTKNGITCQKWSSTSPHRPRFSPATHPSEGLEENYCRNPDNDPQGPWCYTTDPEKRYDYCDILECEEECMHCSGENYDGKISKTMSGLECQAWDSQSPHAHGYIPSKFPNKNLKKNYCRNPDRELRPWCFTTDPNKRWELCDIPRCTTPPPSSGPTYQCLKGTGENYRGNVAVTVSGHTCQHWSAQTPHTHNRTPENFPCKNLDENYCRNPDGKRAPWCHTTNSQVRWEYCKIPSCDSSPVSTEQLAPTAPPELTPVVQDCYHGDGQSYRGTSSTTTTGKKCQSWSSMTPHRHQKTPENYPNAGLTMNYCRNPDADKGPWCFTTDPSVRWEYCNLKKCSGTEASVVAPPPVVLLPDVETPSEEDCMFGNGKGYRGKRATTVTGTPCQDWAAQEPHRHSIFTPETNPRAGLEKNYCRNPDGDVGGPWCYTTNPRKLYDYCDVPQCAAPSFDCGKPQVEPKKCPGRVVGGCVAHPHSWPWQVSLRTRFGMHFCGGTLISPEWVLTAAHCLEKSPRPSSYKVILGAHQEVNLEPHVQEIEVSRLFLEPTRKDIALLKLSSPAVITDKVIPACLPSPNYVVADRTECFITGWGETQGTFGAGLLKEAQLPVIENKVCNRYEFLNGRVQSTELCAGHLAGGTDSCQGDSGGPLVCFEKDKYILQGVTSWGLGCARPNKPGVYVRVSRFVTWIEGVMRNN

Q: What does the source list for `CC(C)=CCC/C(C)=C/CCC1(C)Oc2c(c(O)cc3c2CN(CCCC(C(=O)O)N2Cc4c(cc(O)c5c4OC(C)(CC/C=C(\C)CCC=C(C)C)C(O)C5)C2=O)C3=O)CC1O` (stereo not drawn) [orniplabin]?
A: plasma AST, orniplabin dose group as compared with the control group ([1]; 10 mg/kg into the abdominal cavity for 14 days after 6 weeks carbon tetrachloride, FIG. 1): significant (P<0.01) decrease; plasma ALT, orniplabin dose group versus control group ([1]; 10 mg/kg into the abdominal cavity for 14 days after 6 weeks carbon tetrachloride, FIG. 2): no significant differences observed; plasma ChE, orniplabin dose group as compared with the control group ([1]; 10 mg/kg into the abdominal cavity for 14 days after 6 weeks carbon tetrachloride, FIG. 3): significant (P<0.01) increase; plasma ALT, orniplabin dose group as compared with the normal group ([1]; 10 mg/kg into the abdominal cavity for 14 days, FIG. 2): increases were not observed; cholinesterase levels (protein synthesis ability of the liver) [1, 5]: recovered to the same level as the normal level; degree of impaired liver function (AST and ALT) [1, 5]: recover to nearly the normal level; dissolution of pulmonary embolisms thrombus [2]: promotes dissolution of pulmonary embolisms thrombus; plasminogen activation [3]: promotes plasminogen activation; binding of plasminogen to fibrin [4]: promotes binding of plasminogen to fibrin
